Measured values: patent US7612064B2, “Sulfopyrroles” (Takeda Pharmaceutical Company Limited, priority 2003, dated 2009)

Experiments:
[1] = Hoechst 33342 nuclear staining; assay type: cell-based; settings: for Hoechst 33342 nuclear staining score, H460: H460 cells; for Hoechst 33342 nuclear staining score, HeLa: HeLa cells; for Hoechst 33342 nuclear staining score, Jily: Jily cells; for Hoechst 33342 nuclear staining score, Jurkat: Jurkat cells; for Hoechst 33342 nuclear staining score, MRC5: MRC5 cells; for Hoechst 33342 nuclear staining score, PBLs: key: 0: no activity; 1: weak activity comprising less than 50% of the cells; 2: strong activity comprising more than 50% of the cells;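 for all read-outs here: apoptotic nuclei scored 0 none 1 weak under 50% of cells 2 strong over 50% of cells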
Summary of the method: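 Cells were plated in 96 well tissue culture plates in 80 μl complete medium, with 3-5*10^3 cells per well for adherent lines and 8-10*10^3 for suspension lines. Adherent cells spread for 24 h before treatment, while suspension cells were treated right after seeding. Compounds were added in 20 μl complete medium containing max 5% DMSO.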

[2] = tested on: Jily; assay: MTS proliferation assay; assay type: cell-based; settings: 72 h
Summary of the method: (§1)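 Compounds at final 10/3/1/0.3 μM (added in complete medium, ≤5% DMSO); 72 h, culture conditions; + MTS, 3 h; A492.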

[3] = tested on: MRC5; assay: MTS proliferation assay; assay type: cell-based; settings: MRC5, 72 h
Summary of the method: as §1

[4] = tested on: HeLa; assay: MTS proliferation assay; assay type: cell-based, human; settings: 72 h
Summary of the method: as §1

[5] = tested on: Jurkat; assay: MTS proliferation assay; assay type: cell-based, human; settings: 72 h
Summary of the method: as §1

[6] = conc 0.1 (final concentrations in μM), 24 h or 48 h incubation
[7] = conc 0.3 (final concentrations in μM), 24 h or 48 h incubation
[8] = conc 1 (final concentrations in μM), 24 h or 48 h incubation
[9] = conc 3 (final concentrations in μM), 24 h or 48 h incubation

Row | SMILES | Hoechst 33342 nuclear staining score, H460 ([1]; conc 0.1) | Hoechst 33342 nuclear staining score, H460 ([1]; conc 0.3) | Hoechst 33342 nuclear staining score, H460 ([1]; conc 1) | Hoechst 33342 nuclear staining score, H460 ([1]; conc 3) | Hoechst 33342 nuclear staining score, HeLa ([1]; conc 0.1) | Hoechst 33342 nuclear staining score, HeLa ([1]; conc 0.3) | Hoechst 33342 nuclear staining score, HeLa ([1]; conc 1) | Hoechst 33342 nuclear staining score, HeLa ([1]; conc 3) | Hoechst 33342 nuclear staining score, Jily ([1]; conc 0.1) | Hoechst 33342 nuclear staining score, Jily ([1]; conc 0.3) | Hoechst 33342 nuclear staining score, Jily ([1]; conc 1) | Hoechst 33342 nuclear staining score, Jily ([1]; conc 3) | Hoechst 33342 nuclear staining score, Jurkat ([1]; conc 0.1) | Hoechst 33342 nuclear staining score, Jurkat ([1]; conc 0.3) | Hoechst 33342 nuclear staining score, Jurkat ([1]; conc 1) | Hoechst 33342 nuclear staining score, Jurkat ([1]; conc 3) | Hoechst 33342 nuclear staining score, MRC5 ([1]; conc 0.1) | IC50 [3] | IC50 [4] | IC50 [5] | further results
1 | COCCCNC(=O)c1cncc(-c2cc(-c3cc(OC)c(OC)c(OC)c3)n(S(=O)(=O)c3ccc(C)cc3)c2)c1.Cl [Example 65] | 0 | 0 | 2 (strong activity comprising more than 50% of the cells) | 2 (strong activity comprising more than 50% of the cells) | 0 | 0 | 0 | 2 (strong activity comprising more than 50% of the cells) | 0 | 0 | 2 (strong activity comprising more than 50% of the cells) | 2 (strong activity comprising more than 50% of the cells) | 0 | 0 | 2 (strong activity comprising more than 50% of the cells) | 2 (strong activity comprising more than 50% of the cells) | 0 | < 1 µM | < 1 µM | < 1 µM | Hoechst 33342 nuclear staining score, MRC5 ([1]; conc 0.3): 0; Hoechst 33342 nuclear staining score, MRC5 ([1]; conc 1): 2 (strong activity comprising more than 50% of the cells); Hoechst 33342 nuclear staining score, MRC5 ([1]; conc 3): 2 (strong activity comprising more than 50% of the cells); Hoechst 33342 nuclear staining score, PBLs ([1]; conc 0.1): 0; Hoechst 33342 nuclear staining score, PBLs ([1]; conc 0.3): 0; Hoechst 33342 nuclear staining score, PBLs ([1]; conc 1): 0; Hoechst 33342 nuclear staining score, PBLs ([1]; conc 3): 0; IC50 [2]: < 1 µM
2 | COc1ccc(S(=O)(=O)n2cc(-c3cncc(C(N)=O)c3)cc2-c2ccccc2OC)cc1 [Example 107] | 0 | 0 | 1 (weak activity comprising less than 50% of the cells) | 2 (strong activity comprising more than 50% of the cells) | 0 | 0 | 0 | 2 (strong activity comprising more than 50% of the cells) | 0 | 0 | 2 (strong activity comprising more than 50% of the cells) | 2 (strong activity comprising more than 50% of the cells) | 0 | 0 | 2 (strong activity comprising more than 50% of the cells) | 2 (strong activity comprising more than 50% of the cells) | 0 | > 1 µM | > 1 µM | < 1 µM | Hoechst 33342 nuclear staining score, MRC5 ([1]; conc 0.3): 0; Hoechst 33342 nuclear staining score, MRC5 ([1]; conc 1): 0; Hoechst 33342 nuclear staining score, MRC5 ([1]; conc 3): 0; Hoechst 33342 nuclear staining score, PBLs ([1]; conc 0.1): 0; Hoechst 33342 nuclear staining score, PBLs ([1]; conc 0.3): 0; Hoechst 33342 nuclear staining score, PBLs ([1]; conc 1): 0; Hoechst 33342 nuclear staining score, PBLs ([1]; conc 3): 0; IC50 [2]: < 1 µM
3 | COc1cc(-c2cc(-c3cccnc3)cn2S(=O)(=O)c2ccc3c(c2)CCO3)cc(OC)c1OC [Example 86] | 0 | 0 | 0 | 2 (strong activity comprising more than 50% of the cells) | 0 | 0 | 0 | 1 (weak activity comprising less than 50% of the cells) | 0 | 0 | 1 (weak activity comprising less than 50% of the cells) | 2 (strong activity comprising more than 50% of the cells) | 0 | 0 | 2 (strong activity comprising more than 50% of the cells) | 2 (strong activity comprising more than 50% of the cells) | 0 | > 1 µM | > 1 µM | < 1 µM | Hoechst 33342 nuclear staining score, MRC5 ([1]; conc 0.3): 0; Hoechst 33342 nuclear staining score, MRC5 ([1]; conc 1): 0; Hoechst 33342 nuclear staining score, MRC5 ([1]; conc 3): 1 (weak activity comprising less than 50% of the cells); Hoechst 33342 nuclear staining score, PBLs ([1]; conc 0.1): 0; Hoechst 33342 nuclear staining score, PBLs ([1]; conc 0.3): 0; Hoechst 33342 nuclear staining score, PBLs ([1]; conc 1): 0; Hoechst 33342 nuclear staining score, PBLs ([1]; conc 3): 0; IC50 [2]: < 1 µM
4 | COc1ccc(S(=O)(=O)n2cc(CNc3ccc(N4CCOCC4)cc3)cc2-c2cccc(OC)c2)cc1 [Example 98] | 0 | 0 | 0 | 0 | 0 | 0 | 0 | 0 | 0 | 0 | 0 | 0 | 0 | 0 | 0 | 1 (weak activity comprising less than 50% of the cells) | 0 | > 1 µM | > 1 µM | > 1 µM | Hoechst 33342 nuclear staining score, MRC5 ([1]; conc 0.3): 0; Hoechst 33342 nuclear staining score, MRC5 ([1]; conc 1): 0; Hoechst 33342 nuclear staining score, MRC5 ([1]; conc 3): 0; Hoechst 33342 nuclear staining score, PBLs ([1]; conc 0.1): 0; Hoechst 33342 nuclear staining score, PBLs ([1]; conc 0.3): 0; Hoechst 33342 nuclear staining score, PBLs ([1]; conc 1): 0; Hoechst 33342 nuclear staining score, PBLs ([1]; conc 3): 0; IC50 [2]: > 1 µM
5 | COc1cc(-c2cc(-c3cccnc3)cn2S(=O)(=O)c2ccc(N)cc2)cc(OC)c1OC [Example 93] | 0 | 0 | 0 | 0 | 0 | 0 | 0 | 0 | 0 | 0 | 0 | 0 | 0 | 0 | 0 | 0 | 0 | > 1 µM | > 1 µM | > 1 µM | Hoechst 33342 nuclear staining score, MRC5 ([1]; conc 0.3): 0; Hoechst 33342 nuclear staining score, MRC5 ([1]; conc 1): 0; Hoechst 33342 nuclear staining score, MRC5 ([1]; conc 3): 0; Hoechst 33342 nuclear staining score, PBLs ([1]; conc 0.1): 0; Hoechst 33342 nuclear staining score, PBLs ([1]; conc 0.3): 0; Hoechst 33342 nuclear staining score, PBLs ([1]; conc 1): 0; Hoechst 33342 nuclear staining score, PBLs ([1]; conc 3): 0; IC50 [2]: > 1 µM
6 | CCN1CCN(CCNCc2cc(-c3ccc4c(c3)OCO4)n(S(=O)(=O)c3ccc(C)cc3)c2)CC1 [Example 15] |  |  |  |  |  |  |  |  |  |  |  |  |  |  |  |  |  | > 1 µM | > 1 µM | > 1 µM | Hoechst 33342 nuclear staining score, HeLa [1, 6]: 0; Hoechst 33342 nuclear staining score, HeLa [1, 7]: 0; Hoechst 33342 nuclear staining score, HeLa [1, 8]: 0; Hoechst 33342 nuclear staining score, HeLa [1, 9]: 0; Hoechst 33342 nuclear staining score, Jurkat [1, 6]: 0; Hoechst 33342 nuclear staining score, Jurkat [1, 7]: 0; Hoechst 33342 nuclear staining score, Jurkat [1, 8]: 0; Hoechst 33342 nuclear staining score, Jurkat [1, 9]: 0
7 | Cc1ccc(S(=O)(=O)n2cc(CNCCCN3CCN(C)CC3)cc2-c2ccc3c(c2)OCO3)cc1 [Example 12] |  |  |  |  |  |  |  |  |  |  |  |  |  |  |  |  |  | > 1 µM | > 1 µM | > 1 µM | Hoechst 33342 nuclear staining score, HeLa [1, 6]: 0; Hoechst 33342 nuclear staining score, HeLa [1, 7]: 0; Hoechst 33342 nuclear staining score, HeLa [1, 8]: 0; Hoechst 33342 nuclear staining score, HeLa [1, 9]: 0; Hoechst 33342 nuclear staining score, Jurkat [1, 6]: 0; Hoechst 33342 nuclear staining score, Jurkat [1, 7]: 0; Hoechst 33342 nuclear staining score, Jurkat [1, 8]: 0; Hoechst 33342 nuclear staining score, Jurkat [1, 9]: 0
